Data reported in publication PMC9967700, “Metabolism-Guided Optimization of Tryptophanol-Derived Isoindolinone p53 Activators” (Pharmaceuticals, 2023).
Like-named read-outs stand apart in the source and are kept apart here.

Tests used:
HCT116 p53+/+ cells = experiment: Antiproliferative activity, sulforhodamine B (SRB) assay; format: cell-based, human
Description: (§1) Tumor cells were cultured in RPMI-1640 with UltraGlutamine (Lonza, VWR), supplemented with 10% fetal bovine serum (FBS; Gibco, Alfagene) and maintained in a humidified incubator at 37 °C with 5% CO2. Cell lines were seeded in 96-well plates at the cells/well density of 5.0 × 10^3.

HCT116 p53−/− cells = experiment: as above; format: cell-based, human; details: 48 h treatment, mean ± SEM of 3–5 independent experiments, read-out: HCT116 p53−/− GI50
Description: as §1

[1] = Human liver microsomes incubations: half-life and intrinsic clearance; format: in vitro ADME
Description: For the generation of Phase I metabolites: tested compounds, at a 10 μM concentration (1 μL of 5 mM DMSO stock solution), were incubated with HLM (1 mg protein/mL), Vivid® regenerating system (5 μL) and NADPH (1mM) in ABIC 50 mM buffer pH 7.4, for a total incubation volume of 500 μL. Incubations were run in duplicate, at 37 °C. Aliquots were collected at 0, 5, 10, 20, 30, 40, 50, 60, 75, 90, 120, 180 min and reactions were stopped by adding and ice-cold solution of reserpine (2.5 μM) in acetonitrile. Additional aliquots were taken at 0 and 120 min and subsequently treated with L-lysine (100 µM) and sodium cyanoborohydride (10 µM) or glutathione (100 µM). Following centrifugation (10,000 rpm, 15 min, RT), the clear supernatants were collected and analyzed LC-ESI-HRMS/MS. Control incubations were conducted in the same conditions: (1) using DMSO as negative control, in absence of the test drug; (2) using heat-denatured HLM (90 °C, 15 min); (3) using nevirapine, as a positive control, instead of the tested compound; and (4) in absence of NADPH co-factor.
The in vitro depletion half-lives of tested compounds t1/2 were calculated using Equation (1), assuming that testing compounds follow a first-order kinetic trend. The “slope” was determined from linear fitting of the natural logarithm of the concentration of drug remaining plotted against time:(1) t1/2=ln2/slope
The intrinsic clearance in HLM (CLint, HLM) was calculated using Equation (2):(2) CLint HLM =ln2/ t1/2 x mL incubation/mg microsomes x 45 mg microsomes/g liver x 26 g liver/Kg b.w.

[2] = In vitro reactions with bionucleophiles; details: with or without enzymatic conditions (S9 rat liver incubations)
Description: To a solution of compound 13d in acetonitrile (1.00 eq., 10.1 mg in 400 µL, 5.04 × 10^−2 M) reduced glutathione (4.00 eq. 25.2 mg, 82.00 µmol) dissolved in 400 µL of ABIC buffer 50 mM pH 7.4 was added. The reaction mixture was incubated for 24 h at 37 °C and monitored by LC-ESI-HRMS/MS.
To a solution of compound 13k in acetonitrile (1.00 eq., 4.3 mg in 200 µL, 3.92 × 10^−2 M) reduced glutathione (4.00 eq. 9.64 mg, 31.36 µmol) dissolved in 200 µL of ABIC buffer 50 mM pH 7.4 was added. The reaction mixture was incubated for 24 h at 37 °C and monitored by LC-ESI-HRMS/MS.
SLMP53-1_M5 (1.00 eq., 2.1 mg, dissolved in 150 µL of ACN) was added to a L-lysine (2 eq.) solution in 50 mM ABIC buffer pH 7.4. Following incubation for 24 h at 37 °C a solution of cyanoborohydride (2 eq) was added. The mixture was analyzed by LC-ESI(+)-HRMS/MS.

GI50 (HCT116 p53+/+ cells; Homo sapiens, HCT-116, 48 h treatment, mean ± SEM of 3–5 independent experiments, read-out: HCT116 p53+/+ GI50): 4 ± 0.5 µM
GI50 (HCT116 p53−/− cells): 7.45 ± 0.95 µM
GI50 (HCT116 p53−/− cells; Homo sapiens, HCT-116, 48 h): 7.5 µM
Intrinsic Clearance ([1]; HLM, calculated from half-life (Equation 2)): 5.5 mL/min/kg
clearance classification ([1]; HLM, classification after ref 32): low clearance
half-life at 10 μM ([1]; human, liver microsomes, pH 7.4, HLM 1 mg protein/mL, 10 μM, NADPH, 37 °C): 1.53 h
SMILES: CCCn1c(Br)c(C[C@H]2CO[C@]3(c4ccccc4)c4ccccc4C(=O)N23)c2ccccc21 [Compound 13d, (3S, 9bR)-3-((2-bromo-1-propyl-1H-indol-3-yl)methyl)-9b-phenyl-2,3-dihydrooxazolo[2,3-a]isoindol-5(9bH)-one]
more active than SLMP53-2 (7) (HCT116 p53+/+ cells; HCT116 p53+/+): 2 fold
S.I. (selectivity index) (HCT116 p53+/+ cells; HCT116 p53−/− versus HCT116 p53+/+): 1.9
products of addition of GSH with concomitant loss of bromine [2]: no products compatible with the addition of GSH, and the concomitant loss of bromine, were detected
